Results from paper PMC6733874, “Zebrafish behavioural profiling identifies GABA and serotonin receptor ligands related to sedation and paradoxical excitation” (Nature Communications, 2019).

Assays:
[1] = test system: human GABAARs (α1β2 and α1β2γ2); type: cell-based; details: for Ave Norm FLIPR Score: DMSO = 1
[2] = biological target: TSPO (Rattus norvegicus, UniProt P16257); assay: In vitro receptor binding (NIMH PDSP)
Text: (§1) A second approach to target identification was to test the binding affinity of hit compounds against a panel of 43 human and rodent neurotransmitter-related targets. […]. Several hit compounds bound to multiple targets, including compound 7145248, which bound to TSPO, the benzodiazepine receptor (BZP), dopamine transporter, and the alpha 2b receptor (Fig. 3d). The most common targets (binding > 5 compounds) included BZP, sigma 2, HTR2A/B/C, HTR6, and TSPO (Fig. 3c, d). TSPO, previously known as the peripheral benzodiazepine receptor (PBR) (because it was originally identified as a binding site for benzodiazepine anxiolytic drugs), is a mitochondrial protein that supplies cholesterol to steroid-producing enzymes in the brain[36]. TSPO ligands are thought to enhance GABAergic signaling by increasing neurosteroid production. However, some TSPO ligands, including benzodiazepines and zolpidem, also bind to GABAARs directly. […] Of the 14 compounds that bound to TSPO in vitro, 5 compounds potentiated GABAAR in FLIPR assays (Fig. 3c; 2f, green arrowheads).
(§2) In vitro binding assays and Ki data were generated by the National Institute of Mental Health’s Psychoactive Drug Screening Program (PDSP), contract no. HHSN-271-2008-00025-C (NIMH PDSP), for assay details: http://pdsp.med.unc.edu/PDSP%20Protocols%20II%202013-03-28.pdf. Normalized Ki (npKi) values were generated as follows: npKi = 4 + (−log10 (Ki))[64].

[3] = biological target: T1, alpha 2b receptor (Homo sapiens, UniProt P18089); assay: In vitro receptor binding (NIMH PDSP); details: in words; binding counted at Ki < 10 μM
T1 sequence (P18089 1-450): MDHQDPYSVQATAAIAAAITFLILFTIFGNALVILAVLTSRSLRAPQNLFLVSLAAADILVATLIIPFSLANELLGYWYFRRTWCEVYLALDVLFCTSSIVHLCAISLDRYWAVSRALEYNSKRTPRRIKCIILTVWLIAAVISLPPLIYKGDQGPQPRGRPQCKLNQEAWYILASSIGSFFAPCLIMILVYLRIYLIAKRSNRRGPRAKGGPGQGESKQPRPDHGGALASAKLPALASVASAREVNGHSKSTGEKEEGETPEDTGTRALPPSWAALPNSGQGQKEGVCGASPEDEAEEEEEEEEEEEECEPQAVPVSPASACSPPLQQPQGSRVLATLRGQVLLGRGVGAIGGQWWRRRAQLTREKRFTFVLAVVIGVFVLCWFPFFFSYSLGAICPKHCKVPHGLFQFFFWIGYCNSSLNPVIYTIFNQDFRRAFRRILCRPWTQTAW
Text: as §1, §2

[4] = biological target: benzodiazepine receptor (BZP); assay: In vitro receptor binding (NIMH PDSP); details: in words; binding counted at Ki < 10 μM
Text: as §1, §2

[5] = biological target: dopamine transporter (Homo sapiens, UniProt Q01959); assay: In vitro receptor binding (NIMH PDSP)
Chain of dopamine transporter (Q01959 whole entry): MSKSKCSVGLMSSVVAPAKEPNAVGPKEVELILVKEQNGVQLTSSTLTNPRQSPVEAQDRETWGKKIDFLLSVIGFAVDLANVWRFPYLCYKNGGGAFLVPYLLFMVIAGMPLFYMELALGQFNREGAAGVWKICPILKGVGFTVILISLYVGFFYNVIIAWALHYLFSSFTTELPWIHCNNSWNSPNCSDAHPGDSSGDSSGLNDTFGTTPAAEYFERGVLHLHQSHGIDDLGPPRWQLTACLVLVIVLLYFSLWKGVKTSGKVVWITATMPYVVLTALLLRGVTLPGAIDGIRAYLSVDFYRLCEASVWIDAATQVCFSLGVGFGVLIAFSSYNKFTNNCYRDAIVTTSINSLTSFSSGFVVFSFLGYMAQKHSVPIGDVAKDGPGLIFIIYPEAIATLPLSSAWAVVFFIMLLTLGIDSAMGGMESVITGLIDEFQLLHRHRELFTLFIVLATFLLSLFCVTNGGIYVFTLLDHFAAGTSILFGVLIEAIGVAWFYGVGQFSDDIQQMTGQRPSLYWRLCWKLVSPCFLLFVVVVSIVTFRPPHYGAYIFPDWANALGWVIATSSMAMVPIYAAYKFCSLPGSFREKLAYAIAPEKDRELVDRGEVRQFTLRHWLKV
Text: as §1, §2

[6] = test system: zebrafish; type: in vivo
[7] = test system: zebrafish; assay: Viability of anesthetic treated animals; type: in vivo; details: zebrafish, in vivo
Method: Behavioral assays for pERK. Animals were treated with DMSO or drug for one hour then exposed to a low-volume acoustic stimulus every 10 seconds for 10 minutes. Optovin-treated animals were stimulated with violet light for one second every 10 seconds for 10 minutes. Videos were recorded to measure response to the stimulus and quantified by motion index (MI). Animals were immediately […]
High speed imaging. Digital video was recorded at 500-1000 frames per second using an Integrated Design Tools NX5-S1 digital camera. Assay duration was 500-1000 ms. Low amplitude tap stimuli was delivered as described above. Videos and still images were assembled using Fiji (imageJ) and […]
RNAscope. Zebrafish (6 dpf) were fixed using 10% normal buffered formaldehyde overnight at 4 °C, dehydrated in 100% methanol and stored at -20 °C until the assay was performed. Fluorescent in situ hybridization was performed using the RNAScope kit (Advanced Cell Diagnostics)4 with the following modifications: target retrieval was performed using 150 mM Tris pH 9.5 for 15 minutes at 70 °C, washes were performed using 0.2x SSCT (0.01% Tween-20, […], 0.3mM TriNa-citrate, pH7), samples were stored overnight after probe hybridization and 2x 5 minute washes in 5x SSC ([…], pH7) at room temperature before amplification and detection steps were performed the following day.
Viability. Animals were scored manually to determine viability after anesthetic treatments. 100 animals were scored per condition at 10 minutes, 1 hour and 5 hours post treatment. Strong heart rate was observed under a dissecting scope (Leica M-80) for our viability score. […]
rdkit function FingerprintMols package written for python. Tanimoto similarity function was used with a […]

[8] = test system: zebrafish; assay: Cortisol detection assay; type: in vivo; details: 7-day old larvae treated 1 h; in words
Method: Cortisol levels were measured in zebrafish. Briefly, 15, 7-day old larvae were treated with the indicated compounds for 1 h. Larvae were anesthetized in ice-cold egg water and then snap-froze in an ethanol/dry ice bath. Larvae were then homogenized in 100 μL of water. Cortisol was extracted from the homogenate with 1 mL of ethyl acetate, the resulting supernatant was collected and the solvent allowed to evaporate. Cortisol was dissolved in 0.2% bovine serum albumin (A7030, Sigma) and frozen at −20 °C. For cortisol ELISA experiments, 96-well plates (VWR International) were treated with cortisol antibody (P01-92-94M-P, EastCoast Bio; […] in PBS) for 16 h at 4 °C, washed, and blocked with 0.1% BSA in PBS. Cortisol samples and cortisol-HRP (P91-92-91H, EastCoast Bio) were incubated at room temperature for 2 h and washed extensively with PBS containing 0.05% Tween-20 (Invitrogen). Detection of HRP was performed using tetramethylbenzidine (TMB: 22166-1, Biomol) and Tetrabutylammonium borohydride (TBABH: 230170-10 G, Sigma). Reaction was stopped using 1 M H2SO4. Absorbance was read at 450 nm in an ELISA plate reader (SpectraMax MS, Molecular Devices).

[9] = test system: zebrafish; type: in vivo; remark: listed apart in the source
Method: Behavioral assays for pERK. Animals were treated with DMSO or drug for one hour then exposed to a low-volume acoustic stimulus every 10 seconds for 10 minutes. Optovin-treated animals were stimulated with violet light for one second every 10 seconds for 10 minutes. Videos were recorded to measure response to the stimulus and quantified by motion index (MI). […]

[10] = test system: adult zebrafish; assay: Behavioral responses of adult zebrafish; details: in words
[11] = test system: zebrafish; assay: Optovin-response suppression assay (pain-related); details: in words; relative to concentrations that caused eASRs
Text: To determine if any of the hit compounds may be analgesic, we used optovin-induced motor activity as a potential analgesia-related assay.

[12] = compound at 20 uM then 5 uM GABA

Chain of TSPO (P16257 whole entry): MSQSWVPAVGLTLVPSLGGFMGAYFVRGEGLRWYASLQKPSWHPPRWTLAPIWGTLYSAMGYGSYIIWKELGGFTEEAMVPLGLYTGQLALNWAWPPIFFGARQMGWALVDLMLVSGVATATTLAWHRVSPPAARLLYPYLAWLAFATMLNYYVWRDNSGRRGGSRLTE

Structure (SMILES): O=C(NCc1cccc(Oc2ccccc2)c1)C(=O)c1c[nH]c2ccccc12 [compound 7145248]
- Ave Norm FLIPR Score [1, 12]: -24.79
- binding [2]: bound
- binding [3]: bound
- binding [4]: bound
- binding [5]: bound

Structure (SMILES): CCOC(=O)c1cncn1[C@H](C)c1ccccc1 [etomidate]
- eASRs at higher concentration ([6]; 50 µM compared to 6 µM): suppressed eASRs
- Average phenoscore of etomidate-treated positive controls ([6]; etomidate 6.5 uM, versus DMSO 0.2): 0.71
- percent animals responding (startle frequency) ([6]; etomidate 6.25 µΜ, dampened solenoid stimulus, 100 animals, controls 2%): 85%
- rescue of behavioral phenotypes by pretreatment with the GABAAR antagonist PTX ([6]; violet light and eASR phenotypes, in words): rescued
- Ave Norm FLIPR Score [1, 12]: 50.67
- FLIPR Results ([1]; compound at 20 uM then 5 uM GABA, Positive/Negative): Positive
- GABAAR PAM activity in FLIPR, in words ([1]; in the presence of GABA): increased fluorescence in the presence of GABA
- toxicity at the concentrations that caused eASRs [7]: Neither etomidate or propofol was toxic
- cortisol levels [8]: lowered cortisol levels
- pERK labeling (neuronal activity) ([9]; in words): broadly reduced
- pERK labeling in the caudal hindbrain at higher concentration ([9]; zebrafish, in vivo): decreased pERK labeling in the caudal hindbrain
- violet light response and acoustic startle in adult animals [10]: reducing the violet light response, while increasing acoustic startle
- optovin response (optovin-induced motor activity) [11]: suppressed the optovin response
